Data published in paper doi:10.1101/2025.04.25.650653, “Hierarchical small molecule inhibition of MYST acetyltransferases” (bioRxiv, 2025).
pIC50: −log10 of the molar value. Several values for one entry are separate records, joined by “and”; a condition that tells them apart may be missing. Identical values can stand only once.

Legend:
H2A.ZK4/K7Ac (KAT5) = assay: MYST KAT biomarker western blot, BT-549; type: cell-based; conditions: BT-549 cells, 24 h, 0.1-30 μM
Source text: (§1) Figure 6. […] (C) Dependence of breast cancer cell lines on non-MYST KATs (EP300, CREBBP), MYST KATs (KAT6A, KAT6B, KAT7, KAT8, KAT5), and a MYST KAT complex member (BRPF1) derived from on DepMap CRISPR screening data. BT-549 is highlighted in orange. Lower CERES score indicates a greater dependence of the cell line on the specified gene. […] Data is representiative of n=2 biological replicates.
(§2) Analysis of DepMap-derived CRISPR screening data supports the notion that while breast cancer models vary widely in their requirement for EP300 and CREBBP, BT-549 appears to a fairly independent line. By comparison, targeting of KAT6 and KAT7 exerts modest effects on growth while KAT8 is highly inhibitory, consistent with its designation as an essential gene (Fig. 6C).[47], [48] […] KAT3 (H3K18Ac) and KAT5 (H2A.ZK4/K7Ac) were unaffected. […]
(§3) distinguish between tightly grouped and diffuse clusters, compactness was quantified by calculating the average pairwise Euclidean distance between all points within each cluster. Clusters with lower average […]
(§4) were visualized as two-dimensional scatter plots with points colored according to cluster assignments, […]
(§5) Binding structures between FOXK2 (Uniprot: Q01167) and candidate interactors identified from our chemoproteomic data were predicted using AlphaPulldown4 v0.30.7,4 with multiple sequence alignments generated via ColabFold Search v1.5.5 on the NIH HPC Biowulf Cluster. Five models were generated per protein-protein pair without using templates or paired MSAs. Local Interaction Scores (LIS) and Local Interaction Area (LIA) were calculated according to previously described formulas.5 Structural visualizations were generated using ChimeraX v1.8.
(§6) Composite scoring of candidate FOXK2-protein interactions
(§7) To prioritize potential interactions, we developed a composite scoring system integrating multiple AlphaFold metrics (mpDockQ/pDockQ, LIS, and LIA), building upon established approaches for protein-protein interaction analysis.6 Each interaction was evaluated against minimum acceptable thresholds (1610 for LIA, 0.073 for LIS, and 0.175 for mpDockQ/pDockQ) and assigned a weighted constant (k): 1.0 for passing all three thresholds, 0.75 for two, 0.5 for one, and zero for none. Metrics were then min-max normalized, summed, and multiplied by the weighted constant to generate final composite scores for ranking candidate interactions. All data, code, and analysis scripts can be accessed as described in Data […]
(§8) Prediction of interface contacts […]
(§9) P61964), were further analyzed to identify interface residue-residue contacts using both AlphaFold2 and AlphaFold3. For AlphaFold2 analysis7 we calculated Euclidean distances between alpha carbon coordinates of residues using Sci-Py's Distance Matrix Module, filtering for interactions under 8Å. […]

H3K23Ac (KAT6A/B) = assay: MYST KAT biomarker western blot, BT-549; type: cell-based; conditions: BT-549 cells, 24 h, near the GI50 dose
Source text: as §1, §2, §3, §4, §5, §6, §7, §8, §9

H3K18Ac (KAT3) = assay: MYST KAT biomarker western blot, BT-549; type: cell-based; conditions: BT-549 cells, 24 h, 0.1-30 μM
Source text: as §1, §2, §3, §4, §5, §6, §7, §8, §9

H3K14Ac (KAT7) [1] = assay: MYST KAT biomarker western blot, BT-549; type: cell-based; conditions: BT-549 cells, 24 h, near the GI50 dose
Source text: as §1, §2, §3, §4, §5, §6, §7, §8, §9

H3K18Ac (KAT3A/B) = assay: Histone biomarker bottom-up LC-MS/MS, MCF-7; type: cell-based; conditions: for Ratio, H3_18_26 K18ac: Replicates 1-3
H3K14Ac (KAT7) [2] = assay: Histone biomarker bottom-up LC-MS/MS, MCF-7; type: cell-based; conditions: for Ratio, H3_9_17 K9me1K14ac / Ratio, H3_9_17 K9me2K14ac / Ratio, H3_9_17 K14ac: Replicates 1-3
H4K16Ac (KAT8) = assay: Histone biomarker bottom-up LC-MS/MS, MCF-7; type: cell-based; conditions: for Ratio, H4_4_17 K16ac: Replicates 1-3
[3] = tested on: proteins captured by H3K14-CoA resin from HeLa nuclear extracts; assay: Proteome-wide competitive chemoproteomic profiling (H3K14-CoA beads, TMT LC-MS/MS); type: binding; conditions: for Log2FC PF9363-100nM / PF9363-0nM / Log2FC PF9363-1000nM / PF9363-0nM / Log2FC PF9363-10000nM / PF9363-0nM: H3K14-CoA beads, TMT
NCI-60 cell line panel = assay: NCI-60 cell line screen, sulforhodamine B growth inhibition; type: cell-based, human; conditions: 48 h
[4] = Homo sapiens, MCF7, MCF-7 cells, 24 h
[5] = KAT marker KAT7, PF-9363 0.1 v 30
[6] = KAT marker KAT7, PF-9363 (0.1 mM)
[7] = KAT marker KAT7, PF-9363 (30 mM)

pIC50 (H3K14Ac (KAT7) [2]; [4]): ~6.00 | pIC50 (H4K16Ac (KAT8); [4]): ~5.00
SMILES: COc1cccc(OC)c1S(=O)(=O)Nc1noc2cc(Cn3cccn3)cc(OC)c12 [PF-9363]
effect on KAT5 (H2A.ZK4/K7Ac) (H2A.ZK4/K7Ac (KAT5)): unaffected | inhibition of KAT6A/B (H3K23Ac) (H3K23Ac (KAT6A/B)): near complete inhibiton | effect on KAT3 (H3K18Ac) (H3K18Ac (KAT3)): unaffected | inhibition of KAT7 (H3K14Ac) (H3K14Ac (KAT7) [1]): near complete inhibiton | Fold-change 0.1 v 30, H3_18_26 K18ac (H3K18Ac (KAT3A/B); KAT marker KAT3A/B, PF-9363 0.1 v 30): 1.39 | Average ratio, H3_18_26 K18ac (H3K18Ac (KAT3A/B); KAT marker KAT3A/B, PF-9363 (0.1 mM)): 0.0171 | Average ratio, H3_18_26 K18ac (H3K18Ac (KAT3A/B); KAT marker KAT3A/B, PF-9363 (30 mM)): 0.0123 | Ratio, H3_18_26 K18ac (H3K18Ac (KAT3A/B); KAT marker KAT3A/B, dose 0.1): 0.01666 and 0.01829 and 0.01641 | Ratio, H3_18_26 K18ac (H3K18Ac (KAT3A/B); KAT marker KAT3A/B, dose 1): 0.01874 and 0.01672 and 0.01619 | Ratio, H3_18_26 K18ac (H3K18Ac (KAT3A/B); KAT marker KAT3A/B, dose 10): 0.01831 and 0 and 0.01771 | Ratio, H3_18_26 K18ac (H3K18Ac (KAT3A/B); KAT marker KAT3A/B, dose 30): 0 and 0.0193 and 0.01765 | modulation of H3K18Ac (H3K18Ac (KAT3A/B); MCF-7 cells, 24 h, any concentration (0.1-30 μM)): not found to modulate | Fold-change 0.1 v 30, H3_9_17 K9me1K14ac (H3K14Ac (KAT7) [2]; [5]): 5.55 | Fold-change 0.1 v 30, H3_9_17 K9me2K14ac (H3K14Ac (KAT7) [2]; [5]): 4.54 | Fold-change 0.1 v 30, H3_9_17 K14ac (H3K14Ac (KAT7) [2]; [5]): 4.58 | Average ratio, H3_9_17 K9me1K14ac (H3K14Ac (KAT7) [2]; [6]): 0.0218 | Average ratio, H3_9_17 K9me2K14ac (H3K14Ac (KAT7) [2]; [6]): 0.1048 | Average ratio, H3_9_17 K14ac (H3K14Ac (KAT7) [2]; [6]): 0.0358 | Average ratio, H3_9_17 K9me1K14ac (H3K14Ac (KAT7) [2]; [7]): 0.0039 | Average ratio, H3_9_17 K9me2K14ac (H3K14Ac (KAT7) [2]; [7]): 0.0231 | Average ratio, H3_9_17 K14ac (H3K14Ac (KAT7) [2]; [7]): 0.0078 | Ratio, H3_9_17 K9me1K14ac (H3K14Ac (KAT7) [2]; KAT marker KAT7, dose 0.1): 0.01996 and 0.02377 and 0.02171 | Ratio, H3_9_17 K9me2K14ac (H3K14Ac (KAT7) [2]; KAT marker KAT7, dose 0.1): 0.087 and 0.123 and 0.1045 | Ratio, H3_9_17 K14ac (H3K14Ac (KAT7) [2]; KAT marker KAT7, dose 0.1): 0.03031 and 0.04488 and 0.03226 | Ratio, H3_9_17 K9me1K14ac (H3K14Ac (KAT7) [2]; KAT marker KAT7, dose 1): 0.01133 and 0.012 and 0.01281 | Ratio, H3_9_17 K9me2K14ac (H3K14Ac (KAT7) [2]; KAT marker KAT7, dose 1): 0.0545 and 0.07102 and 0.04882 | Ratio, H3_9_17 K14ac (H3K14Ac (KAT7) [2]; KAT marker KAT7, dose 1): 0.02498 and 0.02856 and 0.02464 | Ratio, H3_9_17 K9me1K14ac (H3K14Ac (KAT7) [2]; KAT marker KAT7, dose 10): 0.004127 and 0.006046 and 0.005821 | Ratio, H3_9_17 K9me2K14ac (H3K14Ac (KAT7) [2]; KAT marker KAT7, dose 10): 0.02988 and 0.02204 and 0.03567 | Ratio, H3_9_17 K14ac (H3K14Ac (KAT7) [2]; KAT marker KAT7, dose 10): 0.01535 and 0.01122 and 0.01409 | Ratio, H3_9_17 K9me1K14ac (H3K14Ac (KAT7) [2]; KAT marker KAT7, dose 30): 0.004797 and 0.003603 and 0.003398 | Ratio, H3_9_17 K9me2K14ac (H3K14Ac (KAT7) [2]; KAT marker KAT7, dose 30): 0.01983 and 0.02491 and 0.02445 | Ratio, H3_9_17 K14ac (H3K14Ac (KAT7) [2]; KAT marker KAT7, dose 30): 0.006424 and 0.008372 and 0.008647 | Ratio, H4_4_17 K16ac (H4K16Ac (KAT8); KAT marker KAT8, PF-9363 0.1): 0.3188 and 0.3244 and 0.3222 | Ratio, H4_4_17 K16ac (H4K16Ac (KAT8); KAT marker KAT8, PF-9363 1): 0.2629 and 0.2802 and 0.2713 | Ratio, H4_4_17 K16ac (H4K16Ac (KAT8); KAT marker KAT8, PF-9363 10): 0.1497 and 0 and 0.16 | Ratio, H4_4_17 K16ac (H4K16Ac (KAT8); KAT marker KAT8, PF-9363 30): 0 (2×) and 0.08259 | Average ratio, H4_4_17 K16ac (H4K16Ac (KAT8); KAT marker KAT8, PF-9363 (0.1 mM)): 0.3218 | Average ratio, H4_4_17 K16ac (H4K16Ac (KAT8); KAT marker KAT8, PF-9363 (30 mM)): 0.0275 | Fold-change 0.1 v 30, H4_4_17 K16ac (H4K16Ac (KAT8); KAT marker KAT8, average ratio 0.1 v 30): 11.69 | competition of capture of NAT10, ESCO1, KAT2B (other clusters) ([3]; 0, 0.1, 1, 10 μM): relatively insensitive | Log2FC PF9363-100nM / PF9363-0nM ([3]; protein BLM (P54132)): 0.02 | Log2FC PF9363-1000nM / PF9363-0nM ([3]; protein BLM (P54132)): 0.03 | Log2FC PF9363-10000nM / PF9363-0nM ([3]; protein BLM (P54132)): 0.05 | concentration at which BRPF3 capture is competed ([3]; protein BRPF3): 10 µM | Log2FC PF9363-100nM / PF9363-0nM ([3]; protein MKI67 (P46013)): -0.01 | Log2FC PF9363-1000nM / PF9363-0nM ([3]; protein MKI67 (P46013)): -0.01 | Log2FC PF9363-10000nM / PF9363-0nM ([3]; protein MKI67 (P46013)): 0.02 | Log2FC PF9363-100nM / PF9363-0nM ([3]; protein NUMA1 (Q14980)): 0.02 | Log2FC PF9363-1000nM / PF9363-0nM ([3]; protein NUMA1 (Q14980)): 0.05 | Log2FC PF9363-10000nM / PF9363-0nM ([3]; protein NUMA1 (Q14980)): 0.06 | Log2FC PF9363-100nM / PF9363-0nM ([3]; protein TRRAP (Q9Y4A5)): -0.05 | Log2FC PF9363-1000nM / PF9363-0nM ([3]; protein TRRAP (Q9Y4A5)): -0.12 | Log2FC PF9363-10000nM / PF9363-0nM ([3]; protein TRRAP (Q9Y4A5)): -0.22 | GI50 (NCI-60 cell line panel; Homo sapiens, most cell lines of the NCI-60 panel, read-out: half-maximal growth inhibition (GI50)): 10 to 100 µM | tolerance of concentrations expected to primarily effect KAT6 and KAT7 (NCI-60 cell line panel; ≤ 1 μM): generally well-tolerated
